# Tested on: MIA PaCa-2 cells
# Experiment: In vitro anti-proliferative activity against MIA PaCa-2 cells
# Assay type: cell-based
# Conditions: Homo sapiens, viability 72 h after dosing by intracellular ATP content, versus DMSO group
# Experimental: Example 50. In Vtro Anti-Proliferative Activity of Compounds of the Present Invention Against MIA PaCa-2 Cells
# MIA PaCa-2 cells were seeded on a 96-well plate at 3000 cells/well. After overnight adherence culture, DMSO or the compounds serially diluted 1:5 from […] were added. The viability was assessed 72 h after dosing by measuring the intracellular ATP content. The inhibition percentages of viable cells by the compounds were calculated by comparing with the DMSO group, and the IC50 values were calculated.
row,Structure (SMILES),IC50
1,N[C@@H]1c2ccccc2CC12CCN(c1cnc3c(N4CCN5CCCc6cccc4c65)n[nH]c3n1)CC2 [Compound 1],0.0351 µM
2,N[C@@H]1c2ccccc2CC12CCN(c1cnc3c(N4CCn5c(=O)ccc6cccc4c65)n[nH]c3n1)CC2 [Compound 6],0.0065 µM
3,N[C@@H]1c2ccccc2CC12CCN(c1cnc3c(N4CCN5C(=O)CCc6cc(F)cc4c65)n[nH]c3n1)CC2 [Compound 9],0.0089 µM
4,N[C@@H]1c2cccnc2CC12CCN(c1cnc3c(N4CCN5C(=O)CCc6cccc4c65)n[nH]c3n1)CC2 [Compound 12],0.0058 µM
5,N[C@@H]1c2cccnc2CC12CCN(c1cnc3c(N4CCn5c(=O)ccc6cccc4c65)n[nH]c3n1)CC2 [Compound 14],0.0072 µM
6,N[C@@H]1c2cccnc2CC12CCN(c1cnc3c(N4CCN5C(=O)CCc6cc(F)cc4c65)n[nH]c3n1)CC2 [Compound 16],0.0093 µM
7,N[C@@H]1c2cc(O)ccc2CC12CCN(c1cnc3c(N4CCN5C(=O)CCc6cccc4c65)n[nH]c3n1)CC2 [Compound 21],0.0113 µM
8,COc1cccc2c1CC1(CCN(c3cnc4c(N5CCN6C(=O)CCc7cccc5c76)n[nH]c4n3)CC1)[C@@H]2N [Compound 24],0.0096 µM
9,N[C@@H]1c2ccc(Cl)nc2CC12CCN(c1cnc3c(N4CCN5C(=O)CCc6cccc4c65)n[nH]c3n1)CC2 [Compound 27],0.0159 µM
10,N[C@@H]1c2cc(O)ccc2CC12CCN(c1cnc3c(N4CCN5C(=O)CCc6ccc(F)c4c65)n[nH]c3n1)CC2 [Compound 35],0.0173 µM
11,Cc1ccc2c(c1)[C@@H](N)C1(CCN(c3cnc4c(N5CCN6C(=O)CCc7ccc(F)c5c76)n[nH]c4n3)CC1)C2 [Compound 36],0.0125 µM
12,N[C@@H]1c2cc(F)ccc2CC12CCN(c1cnc3c(N4CCN5C(=O)CCc6ccc(F)c4c65)n[nH]c3n1)CC2 [Compound 37],0.0139 µM
13,N[C@@H]1c2cc(O)ccc2CC12CCN(c1cnc3c(N4CCN5C(=O)CCc6cc(F)cc4c65)n[nH]c3n1)CC2 [Compound 40],0.0181 µM
14,Cc1ccc2c(c1)[C@@H](N)C1(CCN(c3cnc4c(N5CCN6C(=O)CCc7c(F)ccc5c76)n[nH]c4n3)CC1)C2 [Compound 46],0.014 µM
15,N[C@@H]1c2cc(F)ccc2CC12CCN(c1cnc3c(N4CCN5C(=O)CCc6c(F)ccc4c65)n[nH]c3n1)CC2 [Compound 47],0.0095 µM
16,COc1cccc2c1CC1(CCN(c3cnc4c(N5CCN6C(=O)CCc7c(F)ccc5c76)n[nH]c4n3)CC1)[C@@H]2N [Compound 48],0.0192 µM

# More lines, in order of falling IC50, values ahead:
row,IC50,Structure (SMILES)
1,0.0156 µM,COc1cccc2c1CC1(CCN(c3cnc4c(N5CCN6C(=O)CCc7ccc(F)c5c76)n[nH]c4n3)CC1)[C@@H]2N [Compound 38]
2,0.0135 µM,Cc1ccc2c(c1)[C@@H](N)C1(CCN(c3cnc4c(N5CCN6C(=O)CCc7cc(F)cc5c76)n[nH]c4n3)CC1)C2 [Compound 41]
3,0.0121 µM,N[C@@H]1c2ccccc2CC12CCN(c1cnc3c(N4CCN5C(=O)CCc6c(F)ccc4c65)n[nH]c3n1)CC2 [Compound 10]
4,0.0115 µM,N[C@@H]1c2cc(O)ccc2CC12CCN(c1cnc3c(N4CCN5C(=O)CCc6c(F)ccc4c65)n[nH]c3n1)CC2 [Compound 45]
5,0.0108 µM,NC1c2cccnc2CC12CCN(c1cnc3c(N4CCN5C(=O)CCc6c(F)ccc4c65)n[nH]c3n1)CC2 (stereo not drawn) [Compound 17]
6,0.0101 µM,N[C@@H]1c2cc(F)ccc2CC12CCN(c1cnc3c(N4CCN5C(=O)CCc6cc(F)cc4c65)n[nH]c3n1)CC2 [Compound 42]
7,0.0081 µM,N[C@@H]1c2ccc(F)nc2CC12CCN(c1cnc3c(N4CCN5C(=O)CCc6cccc4c65)n[nH]c3n1)CC2 [Compound 26]
8,0.0051 µM,N[C@@H]1c2ccccc2CC12CCN(c1cnc3c(N4CCN5C(=O)CCc6cccc4c65)n[nH]c3n1)CC2 [Compound 3]

# Reference: patent US20250059206A1, “FUSED RING COMPOUND ACTING AS SHP2 INHIBITOR” (priority 2021, published 2025)
